In ChEMBL document CHEMBL5465560, “Selectivity Literature for EUbOPEN Chemogenomic Library” (2024) one finds % of control, % of activity and % of inhibition data, which are given here for 8 compounds.

Assay [1] deals with T1, Eukaryotic elongation factor 2 kinase (Homo sapiens) (UniProt O00418).
T1 sequence (whole entry): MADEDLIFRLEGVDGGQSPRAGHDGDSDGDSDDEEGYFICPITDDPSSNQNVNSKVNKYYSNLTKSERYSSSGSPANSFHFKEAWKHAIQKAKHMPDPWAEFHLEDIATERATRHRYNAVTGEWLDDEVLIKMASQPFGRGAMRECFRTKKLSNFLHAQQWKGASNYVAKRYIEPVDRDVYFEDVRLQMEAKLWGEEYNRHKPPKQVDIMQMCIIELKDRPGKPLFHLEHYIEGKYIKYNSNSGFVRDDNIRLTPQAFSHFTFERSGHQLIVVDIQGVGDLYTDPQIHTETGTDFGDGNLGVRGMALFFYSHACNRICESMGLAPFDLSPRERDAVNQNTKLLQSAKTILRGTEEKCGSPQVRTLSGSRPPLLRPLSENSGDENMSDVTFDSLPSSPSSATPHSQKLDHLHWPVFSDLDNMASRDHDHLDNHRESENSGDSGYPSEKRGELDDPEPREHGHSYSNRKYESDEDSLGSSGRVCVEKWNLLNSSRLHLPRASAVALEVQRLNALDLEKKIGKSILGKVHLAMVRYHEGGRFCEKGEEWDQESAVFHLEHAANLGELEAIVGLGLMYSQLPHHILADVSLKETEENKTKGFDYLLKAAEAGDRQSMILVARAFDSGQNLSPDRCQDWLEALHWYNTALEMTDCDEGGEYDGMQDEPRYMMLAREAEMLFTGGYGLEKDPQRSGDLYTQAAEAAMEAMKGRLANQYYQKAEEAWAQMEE
In words: Selectivity interaction (ProQinase) EUB0000171b EEF2K.

In assay [2] the target is Tyrosine-protein kinase CSK (Homo sapiens) (UniProt P41240). In words: Selectivity interaction (Ambit KINOMEscan and KiNATiv profiling in Jurkat cells) EUB0000090b CSK. Particulars: at 1 µM. It counts as cell-based.
Chain of Tyrosine-protein kinase CSK (Homo sapiens) (P41240 2-450 limits assumed): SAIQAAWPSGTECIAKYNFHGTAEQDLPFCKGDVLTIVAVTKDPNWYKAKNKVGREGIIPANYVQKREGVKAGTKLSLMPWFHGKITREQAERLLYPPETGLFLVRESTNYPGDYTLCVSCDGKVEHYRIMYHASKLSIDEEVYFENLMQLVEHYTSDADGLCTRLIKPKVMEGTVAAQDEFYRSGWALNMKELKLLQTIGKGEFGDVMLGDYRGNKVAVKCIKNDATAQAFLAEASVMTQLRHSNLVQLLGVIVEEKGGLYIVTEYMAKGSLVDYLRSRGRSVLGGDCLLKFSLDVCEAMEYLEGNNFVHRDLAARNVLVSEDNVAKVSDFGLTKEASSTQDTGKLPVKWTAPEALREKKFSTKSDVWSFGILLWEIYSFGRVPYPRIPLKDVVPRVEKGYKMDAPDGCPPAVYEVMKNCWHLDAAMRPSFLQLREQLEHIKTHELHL
For assay [3], the target named is T2, Activin receptor type-1 (Homo sapiens) (UniProt Q04771).
T2 sequence (whole entry): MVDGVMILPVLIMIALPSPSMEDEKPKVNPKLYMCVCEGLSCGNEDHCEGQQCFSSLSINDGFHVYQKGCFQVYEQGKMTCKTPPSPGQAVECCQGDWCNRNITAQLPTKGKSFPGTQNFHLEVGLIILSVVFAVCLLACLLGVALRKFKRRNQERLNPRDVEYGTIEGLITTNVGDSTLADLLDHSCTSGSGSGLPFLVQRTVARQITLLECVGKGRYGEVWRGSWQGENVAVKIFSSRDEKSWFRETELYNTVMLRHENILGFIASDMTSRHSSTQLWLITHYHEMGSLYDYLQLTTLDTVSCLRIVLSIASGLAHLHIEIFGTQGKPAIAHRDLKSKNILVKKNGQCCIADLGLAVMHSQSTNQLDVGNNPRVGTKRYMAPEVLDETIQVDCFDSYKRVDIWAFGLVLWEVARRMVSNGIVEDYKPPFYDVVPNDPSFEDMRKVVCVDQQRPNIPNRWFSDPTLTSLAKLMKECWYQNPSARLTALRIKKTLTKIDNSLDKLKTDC
Particulars: at 10 µM.

Assay [4] has as its target B2 bradykinin receptor (Homo sapiens) (UniProt P30411). In words: Selectivity interaction (Eurofins CEREP Diversity Profile (receptors and ion channels)) EUB0000279b BDKRB2. The settings on record: at 10 µM.
For assay [5], the target named is T3, Protein arginine N-methyltransferase 9 (Homo sapiens) (UniProt Q6P2P2).
T3 sequence (whole entry): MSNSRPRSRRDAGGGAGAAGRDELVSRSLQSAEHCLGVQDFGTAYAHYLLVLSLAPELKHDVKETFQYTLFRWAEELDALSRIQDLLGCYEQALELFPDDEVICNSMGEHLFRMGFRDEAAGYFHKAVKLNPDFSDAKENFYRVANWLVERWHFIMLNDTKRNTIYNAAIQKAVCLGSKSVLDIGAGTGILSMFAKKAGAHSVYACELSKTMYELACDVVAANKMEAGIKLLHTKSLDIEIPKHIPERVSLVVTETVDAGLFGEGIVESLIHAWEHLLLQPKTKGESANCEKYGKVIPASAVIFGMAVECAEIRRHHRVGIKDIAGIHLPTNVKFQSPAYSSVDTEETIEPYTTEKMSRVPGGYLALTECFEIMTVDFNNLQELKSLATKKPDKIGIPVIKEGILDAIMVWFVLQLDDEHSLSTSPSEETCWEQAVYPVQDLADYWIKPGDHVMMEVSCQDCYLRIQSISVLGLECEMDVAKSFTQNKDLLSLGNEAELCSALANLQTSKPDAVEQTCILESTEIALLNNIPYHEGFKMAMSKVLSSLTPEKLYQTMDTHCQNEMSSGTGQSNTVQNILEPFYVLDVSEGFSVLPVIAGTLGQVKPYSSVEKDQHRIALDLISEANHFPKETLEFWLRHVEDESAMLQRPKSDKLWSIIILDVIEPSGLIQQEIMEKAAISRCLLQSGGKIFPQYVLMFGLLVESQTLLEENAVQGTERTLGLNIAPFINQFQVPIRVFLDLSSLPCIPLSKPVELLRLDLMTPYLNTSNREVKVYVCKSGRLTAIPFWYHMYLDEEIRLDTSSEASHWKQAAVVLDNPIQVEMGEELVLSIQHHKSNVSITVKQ
In words: Selectivity interaction (Methyltransferase screen (radiometric assays, panel of 8 PRMTs, 21 protein lysine methyltransferases, 3 DNA methyltransferases, and one RNA methyltransferase)) EUB0000271b PRMT9.

The target of assay [6] is Bone morphogenetic protein receptor type-1B (Homo sapiens, UniProt O00238). In words: Selectivity interaction (LanthaScreen Eu Kinase Binding Assay) EUB0001632a BMPR1B. Particulars: at 10 µM.
Chain of Bone morphogenetic protein receptor type-1B (O00238 whole entry): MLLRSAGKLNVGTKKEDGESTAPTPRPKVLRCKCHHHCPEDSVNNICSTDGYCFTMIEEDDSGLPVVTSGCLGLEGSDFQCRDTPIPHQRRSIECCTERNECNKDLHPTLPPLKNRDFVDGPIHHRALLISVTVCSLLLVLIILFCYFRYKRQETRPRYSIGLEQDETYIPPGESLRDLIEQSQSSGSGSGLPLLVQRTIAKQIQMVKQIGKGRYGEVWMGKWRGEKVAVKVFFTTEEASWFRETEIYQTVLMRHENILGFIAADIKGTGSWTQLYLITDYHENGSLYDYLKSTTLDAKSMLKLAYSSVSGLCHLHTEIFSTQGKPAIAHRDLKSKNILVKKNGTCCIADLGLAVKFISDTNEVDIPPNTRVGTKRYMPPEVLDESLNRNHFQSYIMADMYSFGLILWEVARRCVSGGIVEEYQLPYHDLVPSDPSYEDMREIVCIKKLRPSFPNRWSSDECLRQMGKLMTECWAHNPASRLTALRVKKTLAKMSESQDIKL
The target in assay [7] is Phosphatidylinositol 4-kinase type 2-beta (Homo sapiens) (UniProt Q8TCG2). The assay is described as follows: Selectivity interaction (ActivX KiNativ screen (kinase selectivity in THP-1 cell lysates)) EUB0000639a PI4K2B. It counts as subcellular. The settings on record: lysate.
Chain of Phosphatidylinositol 4-kinase type 2-beta (Homo sapiens) (Q8TCG2 whole entry): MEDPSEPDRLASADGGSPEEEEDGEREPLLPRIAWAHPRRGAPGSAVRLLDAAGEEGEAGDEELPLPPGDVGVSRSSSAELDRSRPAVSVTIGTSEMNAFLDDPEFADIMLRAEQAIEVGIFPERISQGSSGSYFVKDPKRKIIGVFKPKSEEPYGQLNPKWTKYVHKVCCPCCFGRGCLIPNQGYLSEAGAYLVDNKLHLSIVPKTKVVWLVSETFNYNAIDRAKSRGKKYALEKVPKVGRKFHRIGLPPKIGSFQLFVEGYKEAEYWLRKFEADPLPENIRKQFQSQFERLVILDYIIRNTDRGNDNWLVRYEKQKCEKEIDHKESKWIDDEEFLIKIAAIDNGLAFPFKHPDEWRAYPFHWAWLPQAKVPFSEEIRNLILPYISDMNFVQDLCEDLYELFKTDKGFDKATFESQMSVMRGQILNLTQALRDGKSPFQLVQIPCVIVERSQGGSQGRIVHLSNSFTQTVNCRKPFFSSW
In assay [8] the target is T4, cAMP-dependent protein kinase catalytic subunit PRKX (Homo sapiens) (UniProt P51817).
T4 sequence (whole entry): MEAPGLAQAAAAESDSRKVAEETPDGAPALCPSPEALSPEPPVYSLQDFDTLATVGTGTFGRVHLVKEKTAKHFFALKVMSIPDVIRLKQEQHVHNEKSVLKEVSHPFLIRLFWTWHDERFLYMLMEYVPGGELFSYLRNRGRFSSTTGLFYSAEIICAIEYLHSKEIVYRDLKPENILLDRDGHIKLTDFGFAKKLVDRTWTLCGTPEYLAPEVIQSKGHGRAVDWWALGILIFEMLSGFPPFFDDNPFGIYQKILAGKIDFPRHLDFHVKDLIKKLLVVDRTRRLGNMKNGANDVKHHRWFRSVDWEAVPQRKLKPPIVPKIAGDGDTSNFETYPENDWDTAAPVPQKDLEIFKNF
The settings on record: at 10 µM.

SMILES strings stand for the structures.

Chain of B2 bradykinin receptor (Homo sapiens) (P30411 whole entry): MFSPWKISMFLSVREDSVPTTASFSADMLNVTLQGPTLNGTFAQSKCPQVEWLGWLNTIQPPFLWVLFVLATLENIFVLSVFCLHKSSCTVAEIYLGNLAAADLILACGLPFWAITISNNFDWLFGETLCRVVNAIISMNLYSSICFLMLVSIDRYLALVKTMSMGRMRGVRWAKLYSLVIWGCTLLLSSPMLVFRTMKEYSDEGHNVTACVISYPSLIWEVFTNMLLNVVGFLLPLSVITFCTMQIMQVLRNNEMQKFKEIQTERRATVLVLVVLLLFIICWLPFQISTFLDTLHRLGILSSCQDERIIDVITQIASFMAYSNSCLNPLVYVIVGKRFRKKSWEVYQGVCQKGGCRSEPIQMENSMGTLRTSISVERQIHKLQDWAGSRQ

Take `C=CC(=O)Nc1cccc(C(=O)Nc2ccc(Nc3cc(-c4[nH]c(SC)nc4C)ccn3)cc2)c1`: the % of control turned out to be 91% in assay [1] (at 1 µM) and 92% in assay [1] (at 5 µM).

For `CN(C)C/C=C/C(=O)Nc1ccc(C(=O)N2CCCC(Nc3ncc(Cl)c(-c4c[nH]c5ccccc45)n3)C2)cc1` (centres undefined), the % of control in assay [2] turned out to be 95%.

As to `CCN(CC)CCCCNc1ncc2cc(-c3cc(OC)cc(OC)c3)c(NC(=O)NC(C)(C)C)nc2n1`, the % of control in assay [3] is 100%.

In the case of `CC(=O)c1cc(-c2ccccc2OCC2CC2)c2ncccn12`, the % of control in assay [4] is 112%.

On to `Cc1cc(C)cc([C@@H]2c3cc(C)ccc3NC(=O)CN2C(=O)c2ccc(Br)s2)c1`, for which the figures for the % of activity in assay [5] (at 1 µM) and in assay [5] (at 10 µM) were 102% and 103%, respectively.

With `Cn1cc(-n2cnc3c(NCc4nc5cc(Cl)c(Cl)cc5[nH]4)nc(N4CCOCC4)nc32)cn1`, the % of inhibition in assay [6] is -57.7%.

As to `CC[C@@H]1[C@H](F)C(=O)N[C@@H]1COc1nccc2cc(C(N)=O)c(OC)cc12` [ZIMLOVISERTIB], the % of inhibition in assay [7] (at 0.01 µM) was 13.9%; in assay [7] (at 0.04 µM), -2.8%; in assay [7] (at 0.2 µM) it was -47.4%; in assay [7] (at 1 µM), -23.2%; in assay [7] (at 5 µM), -24%.

`COCC(=O)NC/C=C/c1ccc2ncnc(Nc3ccc(Oc4ccc(C)nc4)c(C)c3)c2c1` [CP-724714] yielded a % of control in assay [8] of 100%.
